Source: US20240325370A1, “THERAPEUTIC REGIMENS OF A DEGRADER OF BRD9” (FOGHORN THERAPEUTICS INC., priority 2021, published 2024)
“Also recorded” adds a separate entry of the source.

What was measured:
[1] = tested on: ASKA synovial sarcoma xenografts; assay: ASKA synovial sarcoma xenograft efficacy; assay type: in vivo; conditions: for Tumor Growth (%) on Day 21 / Tumor Size (mm^3) on Day 21: Mean ± SEM; for T/C (%) / TGI (%): Day 21
Procedure: A study was conducted to examine anti-tumor efficacy of compound S-D1 with BIW IV dosing of the racemate, compound D1, for 3 weeks utilizing a second xenograft model of human synovial sarcoma, ASKA. Vehicle (0.5% HPMC, 0.1% Tween 80 in water, pH 1.3 to 1.5), administered orally, was used as the general comparator for all test article responses (i.e., tumor growth and body weight changes). Pazopanib and ifosfamide, two agents currently used in clinic to treat synovial sarcoma patients were compared to compound D1 treatment alone. Pazopanib was administered orally at 40 mg/kg QD and ifosfamide was given IV at 80 mg/kg QD for the first 3 days (Days 0, 1, and 2) in the 3-week treatment period, mimicking the equivalent treatment regimens for both drugs in human patients.

SYO1 cells [2] = assay: Cell cycle analysis (Click-iT Plus EdU Flow Cytometry Assay); assay type: cell-based, human; conditions: 200 nM or 1 μM for 8 or 13 days; compared to DMSO and lenalidomide
Procedure: (§1) Procedure: SYO1 cells were treated for 8 or 13 days with DMSO, a BRD9 degrader (Compound 1) at 200 nM or 1 μM, or an E3 ligase binder (lenalidomide) at 200 nM. Compounds were refreshed every 5 days. Cell cycle analysis was performed using the Click-iTT Plus EdU Flow Cytometry Assay (Invitrogen). The apoptosis assay was performed using the Annexin V-FITC Apoptosis Detection Kit (Sigma A9210). Assays were performed according to the manufacturer's protocol.

SYO1 cells [3] = assay: Apoptosis assay (Annexin V-FITC Apoptosis Detection Kit); assay type: cell-based, human; conditions: 8 days; compared to DMSO controls
Procedure: as §1

[4] = tested on: non-synovial control cancer cell lines (293T, A549, G401); assay: Growth of non-synovial control cancer cell lines; assay type: cell-based
Procedure: (§2) Cells were treated with DMSO or the BRD9 degrader, Compound 1, at indicated concentrations, and proliferation was monitored from day 7 to day 14 by measuring confluency over time using an IncuCyte live cell analysis system (FIG. 4). Growth medium and compounds were refreshed every 3-4 days.
(§3) Cells were seeded into 12-well plates and treated with DMSO, 1 μM BRD9 inhibitor, Compound 2 (also known as BI-7273, see Martin et al, J Med Chem. 59 (10): 4462-4475 (2016); see structure of compound 2 below), or 1 μM BRD9 degrader, Compound 1.
(§4) The number of cells was optimized for each cell line. Growth medium and compounds were refreshed every 3-5 days. SYO1, Yamato, A549, 293T and HS-SY-II cells were fixed and stained at day 11. ASKA cells were fixed and stained at day 23. Staining was done by incubation with crystal violet solution (0.5 g Crystal Violet, 27 ml 37% Formaldehyde, 100 mL 10×PBS, 10 mL Methanol, 863 dH20 to 1 L) for 30 min followed by 3× washes with water and drying the plates for at least 24 h at room temperature. Subsequently plates were scanned on an Odyssey CLx Imaging system (FIG. 5).
(§5) Cells were seeded into 96-well ultra-low cluster plate (Costar, #7007) in 200 μL complete media and treated at day 2 with DMSO, Staurosporin, or BRD9 degrader, Compound 1, at indicated doses (FIG. 2C). Media and compounds were changed every 5 d and cell colonies were imaged at day 14.

[5] = tested on: synovial sarcoma cell lines (SYO1, HS-SY-II, and ASKA); assay: Crystal violet growth assay, synovial sarcoma cell lines, day 14; assay type: cell-based, human; conditions: treated daily
Procedure: (§6) Procedure: Cells were seeded into 6-well or 12-well plates and were treated daily with a BRD9 degrader (Compound 1), a bromo-domain BRD9 binder (Compound 2), E3 ligase binder (lenalidomide), DMSO, or staurosporin (positive control for cell killing), at indicated concentrations. The number of cells was optimized for each cell line. Growth media was refreshed every 5 days. By day 14, medium was removed, cells were washed with PBS, and stained using 500 μL of 0.005% (w/v) crystal violet solution in 25% (v/v) methanol for at least 1 hour at room temperature. Subsequently plates were scanned on an Odyssey CLx Imaging system.

[6] = tested on: synovial sarcoma cell lines (SYO1, Yamato, HS-SY-II, and ASKA); assay: Growth of synovial sarcoma cell lines (IncuCyte confluency, crystal violet, colonies); assay type: cell-based, human; conditions: 1 μM or indicated concentrations
Procedure: as §2, §3, §4, §5

[7] = tested on: non-synovial control cancer cell lines (RD, HCT116, and Calu6); assay: Crystal violet growth assay, non-synovial control cancer cell lines, day 14; assay type: cell-based; conditions: treated daily
Procedure: as §6

[8] = 80 mg/kg QD IV Day 0 to Day 2, ASKA xenograft
[9] = 40 mg/kg QD oral 3 weeks, ASKA xenograft

SMILES: O=P1(NCCCl)OCCCN1CCCl (centres unmarked) [Ifosfamide, reference compound]
- Tumor Growth (%) on Day 21 [1, 8]: 820 ± 56%
- Tumor Size (mm^3) on Day 21 [1, 8]: 1164 ± 126 mm^3
- T/C (%) ([1]; 80 mg/kg QD IV Day 0 to Day 2): 67.2%
- TGI (%) ([1]; 80 mg/kg QD IV Day 0 to Day 2): 32.8%
- tolerability (body weight) ([1]; ASKA xenograft, 3-week treatment period): transient body weight loss occurred but recovered within a few days
- tumor growth inhibition achieved ([1]; pazopanib 40 mg/kg QD oral, ifosfamide 80 mg/kg QD IV Days 0, 1, 2, ASKA xenograft): partial TGI

SMILES: Cc1ccc(Nc2nccc(N(C)c3ccc4c(C)n(C)nc4c3)n2)cc1S(N)(=O)=O [Pazopanib, reference compound]
- Tumor Growth (%) on Day 21 [1, 9]: 480 ± 33%
- Tumor Size (mm^3) on Day 21 [1, 9]: 537 ± 56 mm^3
- T/C (%) ([1]; 40 mg/kg QD oral 3 weeks): 39.4%
- TGI (%) ([1]; 40 mg/kg QD oral 3 weeks): 60.6%

SMILES: COc1cc(-c2cn(C)c(=O)c3cnccc23)cc(OC)c1CN(C)CC(=O)NCCOCCOCCNc1cccc2c1C(=O)N(C1CCC(=O)NC1=O)C2=O (centres unmarked) [Compound 1]
- numbers of cells in the S-phase of the cell cycle (SYO1 cells [2]): reduced numbers of cells in the S-phase
- numbers of early- and late-apoptotic cells (SYO1 cells [3]): increased numbers of early- and late-apoptotic cells
- inhibition of the growth of the cells [4]: does not result in inhibition of the growth
- inhibition of the growth of the cells [5]: inhibition of the growth of the cells; also recorded: most significant growth inhibition
- inhibition of the growth of the cells [6]: inhibition of the growth of the cells
- inhibition of the growth of the cells [7]: did not result in inhibition of the growth

SMILES: COc1cc(-c2cn(C)c(=O)c3cnccc23)cc(OC)c1CN(C)C [Compound 2]
- inhibition of the growth of the cells [4]: does not result in inhibition of the growth
- inhibition of the growth of the cells [5]: inhibition of the growth of the cells
- inhibition of the growth of the cells [6]: inhibition of the growth of the cells
- inhibition of the growth of the cells [7]: did not result in inhibition of the growth
